Experimental data from patent US8658353B2, “Liver cell toxicity assay” (Corning Incorporated, priority 2008, dated 2014).
Each block holds one molecule with its values, some of them ahead of it.

Legend:
primary liver cells [1] = assay: Label-free biosensor DMR assay, direct exposure of primary liver cells in biosensor sandwich culture; format: cell-based, Human; details: for DMR signal upon exposure to compound alone: all doses examined
Experimental: Collagen coating of the biosensor microplates was achieved by dispensing 10 μl collagen I (10 μg/ml) into each well, and followed by slow drying over night under controlled vacuum condition. This coating process takes advantage of slow self-assembly of collagen I, and results in an un-even coating consisting of a series of clusters of collagen I, thus providing microscale or nanoscale topology of ECM materials to liver cells to form Epic® 384well biosensor microplate collagen coated.
The RWG biosensor exploits its evanescent wave to measure ligand-induced DMR signals in cells. The evanescent wave extends into the cells and exponentially decays over distance, leading to a characteristic sensing volume of ˜150 nm, implying that any optical response mediated through the receptor activation only represents an average over the portion of the cell that the evanescent wave is sampling. The aggregation of many cellular events downstream the receptor activation determines the kinetics and amplitudes of a ligand-induced DMR.
(§1) The cell responses were recorded continuously.

[2] = tested on: human lung cancer cell line A549; assay: Label-free biosensor DMR assay of A549 cells exposed to 2 mM H2O2 with or without thrombin pretreatment; format: cell-based
Experimental: The kinetic responses were normalized at the time point 2 min before the addition of H2O2.
as §1
The large amplitude of the second N-DMR signal indicates the significant loss of local biomass density within the detection zone of the biosensor, indicative of cell apoptosis which leads to the release of cellular matters from the bottom portion of cells cultured on the biosensor surface. […] The onset time for the second N-DMR event is delayed by at least 15 min.

primary liver cells [3] = assay: Label-free biosensor DMR assay, 1 mM H2O2 as amplifying marker after compound pretreatment of primary liver cells; details: then 1 mM H2O2

- DMR response (primary liver cells [1]; 5 mM H2O2): significant negative DMR (N-DMR) signal
- onset time for the N-DMR signal (primary liver cells [1]; after treatment with 5 mM H2O2): around 30 min
Molecule: OO [H2O2, hydrogen peroxide]
- DMR response (change in local biomass) (primary liver cells [1]; 1 mM H2O2): did not trigger any significant change in local biomass
- DMR signal of A549 cells ([2]; 2 mM H2O2, no thrombin pretreatment): complicated DMR signal, consisting of four phases

Molecule: C[S+]([O-])c1ccc(-c2nc(-c3ccncc3)c(-c3ccc(F)cc3)[nH]2)cc1 (centres unmarked) [SB203580]
- DMR signal upon exposure to compound alone (primary liver cells [1]; 625 nanomolar up to 10000 nanomolar): did not result in any significant DMR signal
- H2O2-induced DMR signal after pretreatment (primary liver cells [3]; high doses of SB203580, pretreatment ~1-4 hrs): responded to 1 mM H2O2 exposure with a N-DMR

- H2O2-induced DMR signal after pretreatment (primary liver cells [3]; rifampin pretreatment ~1-4 hrs): rifampin dose dependent N-DMR
Molecule: CO[C@H]1/C=C/O[C@@]2(C)Oc3c(C)c(O)c4c(O)c(c(/C=N/N5CCN(C)CC5)c(O)c4c3C2=O)NC(=O)/C(C)=C\C=C\[C@H](C)[C@H](O)[C@@H](C)[C@@H](O)[C@@H](C)[C@H](OC(C)=O)[C@@H]1C [rifampin, Rifampin]
- DMR signal upon exposure to compound alone (primary liver cells [1]; rifampin 625 nM up to 40000 nM): did not result in any significant loss in local biomass density or cause any significant DMR signal

Molecule: thrombin
- delay of onset time for the second N-DMR event ([2]; thrombin pretreatment 1 to 16 unit/ml, then 2 mM H2O2): at least 15 min
- potency to alter the H2O2 response, based on amplitudes of the rapid P-DMR event ([2]; thrombin pretreatment 1 hr, then 2 mM H2O2, said to correspond to EC50 for endogenous PAR1 activation): ~4 unit/ml
- effect on H2O2-induced A549 apoptosis ([2]; thrombin pretreatment, then 2 mM H2O2): protective of H2O2-induced A549 apoptosis
